From PMC10333884, “Large‐scale phosphomimetic screening identifies phospho‐modulated motif‐based protein interactions” (Molecular Systems Biology, 2023)
Residues, ends and D or L forms follow the SMILES beside them.

Experiments:
KPNA4 ARM Major = target: T1, KPNA4 ARM Major (Homo sapiens, UniProt O00629); experiment: FP displacement assay, KPNA4 ARM major pocket; type: binding; conditions: for Kd: major pocket probe FITC-MYC 5 nM, 50 mM sodium phosphate pH 7.4, room temperature, at least three technical replicates, read-out: KD values ± SEM
T1 construct: 60-487; GST (cleaved yes); made in house; host or cells: Escherichia coli BL21-Gold(DE3)
Procedure: (§1) FP experiments were performed as described previously (Kliche et al, [2021]). Shortly, in order to monitor the binding event, FITC‐labelled peptides were used (excitation 495 nm, emission: 535 nm) and the FP signal was recorded in mP on a SpectraMax iD5 Multi‐Mode Microplate Reader (Molecular Devices) by measuring the emitted light in two angels. The measurements were performed at room temperature and prepared in nonbinding black half area 96‐well microplates (Corning®; 50 μl/well). For measuring direct binding, that is saturation curves, a 1:1 dilution series of protein domain (25 μl/well) was generated in 50 mM sodium phosphate buffer pH 7.4 and the measurement performed with 5 nM FITC‐labelled peptide (25 μl/well). The buffer‐corrected values were subsequently plotted with PRISM and fitted to the quadratic equation (Gianni et al, [2005]).
(§2) The 1:1 dilution series in this experiment was performed with the unlabelled peptide in 50 mM sodium phosphate buffer pH 7.4, so that each well‐contained unlabelled peptide (25 μl) at a certain concentration and pre‐formed complex (25 μl). The KD values of this indirectly monitored binding event were calculated as described previously (Nikolovska‐Coleska et al, [2004]). All measurements were at least in technical triplicates as well as biological duplicates when indicated. An amplitude shift between repeat measurements in the displacement experiments was occasionally observed due to variations in the protein preparations. If that was the case, the “active” protein concentration was back‐calculated according to the quadratic equation from the saturation curves performed in parallel. By comparing the active protein concentrations in the complex between different protein preparations, the amplitude was normalised.

KPNA4 ARM = experiment: Phosphomimetic ProP-PD selection, KPNA4 ARM; type: binding, human; conditions: phosphomimetic enrichment score of the wild-type/phosphomimetic (E) pair at the phosphosite, PM_HD2 phage selection; same score in the major and minor pocket; P-value in brackets not taken
KPNA4 ARM minor = target: T2, KPNA4 ARM minor (Homo sapiens, UniProt O00629); experiment: FP displacement assay, KPNA4 ARM minor pocket; type: binding; conditions: for Kd: minor pocket probe FITC-NCOR2 5 nM, 50 mM sodium phosphate pH 7.4, room temperature, at least three technical replicates, read-out: KD values ± SEM
T2 construct: 60-487; GST (cleaved yes); made in house; host or cells: Escherichia coli BL21-Gold(DE3)
Procedure: as §1, §2

GGA1 VHS [1] = target: T3, GGA1 VHS (Homo sapiens, UniProt Q9UJY5); experiment: FP displacement assay, GGA1 VHS; type: binding; conditions: FP displacement, probe FITC-IGF2R 5 nM, 50 mM sodium phosphate pH 7.4, room temperature; at least three technical replicates; read-out: KD values ± SEM
T3 construct: GGA1_VHS__Q9UJY5_1_157; GST (cleaved yes); made in house; host or cells: Escherichia coli BL21-Gold(DE3)
T3 sequence (Q9UJY5 1-157): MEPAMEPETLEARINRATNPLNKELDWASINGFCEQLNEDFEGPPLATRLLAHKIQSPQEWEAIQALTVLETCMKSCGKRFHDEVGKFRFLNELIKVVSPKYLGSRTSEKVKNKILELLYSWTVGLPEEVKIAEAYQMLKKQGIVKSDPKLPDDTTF
Procedure: as §1, §2

GGA1 VHS [2] = target: T3, GGA1 VHS; experiment: Phosphomimetic ProP-PD selection, GGA1 VHS; conditions: phosphomimetic enrichment score of the wild-type/phosphomimetic (E) pair at the phosphosite, PM_HD2 phage selection; positive = phosphomimetic enhances binding; P-value in brackets not taken
Procedure: Selections using the PM_HD2 phage library were performed as described previously with minor modification to the original protocol. The corresponding tag protein (either GST or MBP) was first used during negative selections. Selections were run for 4 days. • Bait and tag proteins (10–15 μg in 100 μl PBS) were immobilised in 96‐well MaxiSorb plate (NUNC) o.n. at 4°C. • Escherichia coli OmniMax bacteria were grown in 2YT medium supplemented with tetracycline (100 μg/ml) at 37°C and 200 rpm. • Plates with immobilised bait/tag proteins were blocked with 0.5% BSA in PBS for 1 h at 4°C. • Phage library (10 μl/well) was prepared by diluting 10× with PBS and adding one‐fourth of the volume of PEG/NaCl. For phage precipitation, prepared library was incubated for 10 min on ice followed by centrifugation for 10 min at 10,000 × g at 4°C. […]
Based on the results from phage pool ELISAs, samples from selection Day 3 and 4 were selected for NGS, as described previously (Benz et al, [2022]). • Peptide coding regions were amplified and dual‐barcoded by PCR. […] From the columns, samples were eluted with 30 μl TE (10 mM Tris–HCl, 1 mM EDTA. pH 7.5) buffer and quantified with Quant‐iT PicoGreen dsDNA Assay Kit. • Samples were sequenced on MiSeq (MSC 2.5.0.5/RTA 1.18.54) with a 151 nt (Read1) setup using “Version3” chemistry. […]

GGA1 VHS [3] = target: T3, GGA1 VHS; experiment: ITC, GGA1 VHS; type: binding; design: Ka: unit not given beside the values

T2 sequence (O00629 60-487): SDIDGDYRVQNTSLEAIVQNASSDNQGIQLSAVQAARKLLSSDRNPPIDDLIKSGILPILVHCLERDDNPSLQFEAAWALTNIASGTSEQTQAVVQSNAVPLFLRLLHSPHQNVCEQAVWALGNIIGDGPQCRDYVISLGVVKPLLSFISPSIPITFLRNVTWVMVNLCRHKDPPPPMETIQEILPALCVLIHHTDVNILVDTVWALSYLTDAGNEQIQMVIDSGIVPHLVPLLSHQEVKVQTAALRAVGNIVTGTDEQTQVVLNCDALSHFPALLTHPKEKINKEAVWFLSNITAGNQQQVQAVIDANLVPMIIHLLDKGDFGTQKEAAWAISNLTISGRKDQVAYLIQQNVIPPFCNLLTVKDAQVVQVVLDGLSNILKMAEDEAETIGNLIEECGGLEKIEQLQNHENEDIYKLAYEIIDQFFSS
T1 sequence (O00629 60-487): as above

SMILES | Kd (KPNA4 ARM Major) [µM] | PES (KPNA4 ARM) | Kd (KPNA4 ARM minor) [µM] | Kd (GGA1 VHS [1]) [µM] | PES (GGA1 VHS [2]) | other results
CC(=O)NCC(=O)N[C@@H](C)C(=O)N[C@@H](CCC(=O)O)C(=O)N1CCC[C@H]1C(=O)N[C@@H](C)C(=O)N[C@@H](CC(C)C)C(=O)N[C@@H](CCCCN)C(=O)N[C@@H](CCCNC(=N)N)C(=O)N[C@@H](CO)C(=O)N[C@@H](Cc1c[nH]cn1)C(=O)N[C@@H](CO)C(=O)N[C@@H](CC(=O)O)C(=O)N[C@@H](CO)C(=O)N[C@@H](Cc1ccc(O)cc1)C(N)=O [CDC25A114–125 E] (Ac-GAEPALKRSHSDSY-NH2) | 0.75 ± 0.03 | 10 (0.000006) | 2.3 ± 0.3 |  |  | 
CC(=O)N[C@@H](CCC(=O)O)C(=O)N[C@H](C(=O)N[C@@H](Cc1ccc(O)cc1)C(=O)N[C@@H](Cc1ccc(O)cc1)C(=O)N[C@@H](CC(C)C)C(=O)N[C@@H](CO)C(=O)N[C@@H](CC(=O)O)C(=O)N[C@@H](CCC(=O)O)C(=O)N1CCC[C@H]1C(=O)N[C@@H](CC(C)C)C(=O)N[C@@H](CC(C)C)C(=O)NCC(=O)N1CCC[C@H]1C(=O)N1CCC[C@H]1C(=O)N[C@H](C(=O)NCC(N)=O)C(C)C)[C@@H](C)O [GTSE1_145–160 E] (Ac-ETYYLSDEPLLGPPVG-NH2) |  |  |  | 199 ± 4 | 9 (0.00012) | 
CC(=O)N[C@@H](CC(=O)O)C(=O)N[C@@H](CC(C)C)C(=O)N[C@@H](CC(C)C)C(=O)N[C@@H](CCC(=O)O)C(=O)N[C@@H](CO)C(=O)N1CCC[C@H]1C(=O)N[C@@H](CC(=O)O)C(=O)N[C@H](C(=O)NCC(=O)N[C@@H](CC(C)C)C(=O)N[C@@H](CC(C)C)C(=O)N[C@@H](CCCCN)C(=O)N[C@@H](CC(C)C)C(=O)N[C@@H](C)C(=O)N[C@@H](CO)C(=O)N[C@@H](Cc1ccc(O)cc1)C(N)=O)C(C)C [JUN59–73 E] (Ac-DLLESPDVGLLKLASY-NH2) |  |  |  | 450 ± 50 | 3.6 (0.023) | 
CC(=O)N[C@@H](CC(N)=O)C(=O)N[C@@H](Cc1ccc(O)cc1)C(=O)N[C@@H](C)C(=O)N1CCC[C@H]1C(=O)N1CCC[C@H]1C(=O)N[C@H](C(=O)N[C@@H](CCCCN)C(=O)N[C@@H](CCCNC(=N)N)C(=O)N[C@@H](CCC(=O)O)C(=O)N[C@@H](CCCNC(=N)N)C(=O)N[C@@H](CCC(=O)O)C(=O)N[C@@H](CO)C(=O)N[C@@H](CO)C(=O)N[C@@H](CC(C)C)C(=O)N[C@H](C(=O)N[C@@H](CCC(N)=O)C(N)=O)[C@@H](C)O)C(C)C [RANBP3_114–129 E (p + 5)] (Ac-NYAPPVKRERESSLTQ-NH2) | 0.8 ± 0.03 | −7 (0.00012) | 61 ± 2 |  |  | IC50 (KPNA4 ARM Major; Fig 3E, KPNA4 ARM major, technical triplicates, read-out: IC50 values of displacement curves, with SEM): 7.1 ± 0.5 µM; IC50 (KPNA4 ARM minor; Fig 3E, KPNA4 ARM minor, technical triplicates, read-out: IC50 values of displacement curves, with SEM): 290 ± 16 µM
CC[C@H](C)[C@H](NC(=O)[C@H](CC(=O)O)NC(=O)[C@H](CC(=O)O)NC(=O)[C@H](CO)NC(=O)[C@@H](NC(=O)[C@@H]1CCCN1C(=O)[C@H](CO)NC(=O)[C@H](CCCCN)NC(=O)[C@H](Cc1ccc(O)cc1)NC(C)=O)[C@@H](C)O)C(=O)N[C@@H](CCC(=O)O)C(=O)N[C@@H](CC(C)C)C(=O)N[C@@H](CC(C)C)C(=O)N[C@@H](Cc1c[nH]cn1)C(=O)N[C@@H](CCC(=O)O)C(=O)N[C@@H](CO)C(=O)N[C@@H](CCC(N)=O)C(=O)N[C@@H](CO)C(N)=O [RNF11_6–21 E] (Ac-YKSPTSDDIELLHESQS-NH2) |  |  |  | 1000 | 4.9 (0.009) | Kd (GGA1 VHS [3]; ITC (iTC200), 50 mM sodium phosphate pH 7.4, 1 mM DTT, average of the runs, technical duplicates): 101 µM; Ka (GGA1 VHS [3]; ITC single run: date 200220, injection 1): 10600; Ka (GGA1 VHS [3]; ITC single run: date 200220, injection 2): 9350
CC(=O)N[C@@H](CC(=O)O)C(=O)N[C@H](C(=O)N[C@@H](CCC(=O)O)C(=O)N[C@@H](Cc1c[nH]cn1)C(=O)NCC(=O)NCC(=O)N[C@@H](CCCCN)C(=O)N[C@@H](CCCNC(=N)N)C(=O)N[C@@H](CCC(=O)O)C(=O)N[C@@H](CCCNC(=N)N)C(=O)N[C@@H](CC(C)C)C(=O)N[C@H](C(=O)N1CCC[C@H]1C(=O)N[C@H](C(=O)N[C@@H](CO)C(=O)N[C@@H](Cc1ccc(O)cc1)C(N)=O)C(C)C)[C@@H](C)O)C(C)C [SQSTM1_258–272 E] (Ac-DVEHGGKRERLTPVSY-NH2) | 5.3 ± 0.4 | −3 (0.0096) | 41 ± 2 |  |  | 
